Data published in article PMC4564450, “Oral and inhaled p38 MAPK inhibitors: effects on inhaled LPS challenge in healthy subjects” (European Journal of Clinical Pharmacology, 2015).

What was measured:
[1] = Safety: treatment emergent adverse events; format: in vivo, human; conditions: for safety and tolerability: single doses, healthy subjects, studies 1 and 2
Protocol: Safety was assessed in these studies by physical examinations, haematology and biochemistry measurements, ECG analysis and reporting of any adverse events.
Summary of Number ofSubjects Experiencing Treatment EmergentAdverse Events by MedDRA System Organ Class

p38 MAPK = conditions: no reference given; read-out: enzyme IC50; cited from earlier work
[2] = cited from earlier work
[3] = study 2, PF-03715455 20mg (n=27), PH-797804 30mg (n=23)
[4] = study 2, PF-03715455 20mg (n=27), PH-797804 30mg (n=23), hangover (PF-03715455), loss of libido and insomnia (PH-797804)

Row | Compound | safety and tolerability [1] | Number of subjects with treatment emergent AE: Eye Disorders [1, 3] | Number of subjects with treatment emergent AE: Gastrointestinal Disorders [1, 3] | Number of subjects with treatment emergent AE: General Disorders and Administration Site Conditions [1, 3] | Number of subjects with treatment emergent AE: Immune system disorders [1, 3] | Number of subjects with treatment emergent AE: Injury, Poisoning and Procedural Complications [1, 3] | Number of subjects with treatment emergent AE: Musculoskeletal and Connective tissue disorders [1, 3] | Number of subjects with treatment emergent AE: Nervous system disorders [1, 3] | Number of subjects with treatment emergent AE: Respiratory, thoracic and mediastinal disorders [1, 3] | Number of subjects with treatment emergent AE: Skin and subcutaneous tissue disorders [1, 3] | Number of subjects with treatment emergent AE: Vascular disorders [1, 3] | Number of subjects with treatment emergent AE: Psychiatric disorders [1, 4] | other results
1 | CC(C)(C)c1cc(NC(=O)NCc2ccccc2Sc2ccc3nnc(-c4ccccc4SCCO)n3c2)n(-c2ccc(O)c(Cl)c2)n1 [PF-03715455] | safe and generally well tolerated | 0 | 2 | 3 | 0 | 0 | 0 | 5 | 2 | 1 | 1 | 1 | AE requiring withdrawal ([1]; study 2, one subject, 5 days after dosing, investigator did not consider it related): cellulitis; IC50 (p38 MAPK): 0.005 to 0.05 nM
2 | CNC(=O)c1ccc(C)c(-n2c(C)cc(OCc3ccc(F)cc3F)c(Br)c2=O)c1 [PH-797804] | safe and generally well tolerated | 1 | 0 | 3 | 0 | 1 | 0 | 8 | 3 | 0 | 0 | 2 | Number of subjects with treatment emergent AE: Eye Disorders ([1]; study 1, PH-797804 30mg (n=17)): 1; Number of subjects with treatment emergent AE: Gastrointestinal Disorders ([1]; study 1, PH-797804 30mg (n=17)): 0; Number of subjects with treatment emergent AE: General Disorders and Administration Site Conditions ([1]; study 1, PH-797804 30mg (n=17)): 1; Number of subjects with treatment emergent AE: Infections and infestations ([1]; study 1, PH-797804 30mg (n=17)): 1; Number of subjects with treatment emergent AE: Injury, Poisoning and Procedural Complications ([1]; study 1, PH-797804 30mg (n=17)): 1; Number of subjects with treatment emergent AE: Investigation (raised blood potassium) ([1]; study 1, PH-797804 30mg (n=17)): 0; Number of subjects with treatment emergent AE: Musculoskeletal and Connective tissue disorders ([1]; study 1, PH-797804 30mg (n=17)): 1; Number of subjects with treatment emergent AE: Nervous system disorders ([1]; study 1, PH-797804 30mg (n=17)): 2; Number of subjects with treatment emergent AE: Respiratory, thoracic and mediastinal disorders ([1]; study 1, PH-797804 30mg (n=17)): 0; Number of subjects with treatment emergent AE: Skin and subcutaneous tissue disorders ([1]; study 1, PH-797804 30mg (n=17)): 0; Number of subjects with treatment emergent AE: Psychiatric disorders ([1]; study 1, PH-797804 30mg (n=17), event was insomnia lasting 1 hr): 1; Number of subjects with treatment emergent AE: Infections and infestations [1, 3]: 2; improvement of FEV1 ([2]; COPD patients treated for 6 weeks): 93 mL; pulmonary function ([2]; COPD trial): clinically significant improvement; tolerability in COPD trials ([2]; oral, up to 24-week duration): well tolerated
